One molecule from patent publication US20200352918A1, “COMPOUNDS AND METHODS FOR TREATING OR PREVENTING FIBROSIS” (priority 2019, published 2020) can be followed below.

Common to all, as to assay type: cell-based, human
The test system of one assay is SSEA4+ cells. The assay is described as follows: FACS of SSEA4+ cells in the iFA model. The conditions noted are these: AA5 treatment. As for the experimental part: For determination of various cell populations in the iFA model, the cells were dissociated using Accumax (Stem Cell Technologies) for 5 minutes, pelleted and resuspended in FACS buffer (3% Fetal Bovine Serum/PBS). 1×10^6 cells were incubated with a the appropriate conjugated antibody listed in Table 3 for 20 minutes at 4° C. under shaking conditions. The cells were washed with the FACS buffer and acquired using a flow cytometer (BD LSRII) and analysed using FACS Diva and FlowJo softwares.

Assay [1] has as its system Idiopathic Pulmonary Fibrosis patient lung slices. Kind of assay: Ex vivo fibrotic lung slice culture (LSC) system. As for the experimental part:
The Milliplex human cytokine/chemokine Panel IV, human TIMP Panel 2, and human TGFβ 1,2,3 magnetic bead kits (EMD Millipore) were used per manufacturer's instructions. Prior to plating, all samples tested for human TGFβ only were activated and neutralized with 1.0 N HCl and 1.0 N NaOH, respectively. Briefly, 25 μl of undiluted or treated cell culture supernatant samples were mixed with 25 μl of magnetic beads and allowed to incubate overnight at 4° C. while shaking. After washing the plates with wash buffer in a Biotek ELx405 washer, 25 μl of biotinylated detection antibody was added and incubated for 1 hour at room temperature while shaking. 25 μl of streptavidin-phycoerythrin conjugate was then added to the reaction mixture and incubated for another 30 minutes at room temperature while shaking. Following additional washes, beads were resuspended in sheath fluid, and fluorescence was quantified using a Luminex 200 instrument. Similarly, a custom magnetic Luminex assay kit of select analytes (R&D Systems) was used per manufacturer's instructions. Cell culture supernatants were prepared with a 2-fold dilution. 50 μl of diluted sample were added to 50 μl of provided micro-particle cocktail and incubated for 2 hours at room temperature while shaking. After washing with wash buffer, 50 μl of biotin antibody cocktail was added and incubated for 1 hour at room temperature while shaking. Following additional washes, 50 μl of diluted Streptavidin-PE was then added for incubation for 30 minutes at room temperature while shaking. The plate was then washed again and the micro-particles resuspended in 100 μl wash buffer. After an additional 2-minute incubation while shaking, the data was acquired using a Luminex 200 instrument.
Conditioned media at different time points of progression of the phenotype, and on prevention and resolution drug treatments were collected and quantification of protein was performed using the IBL man HMGB1 ELISA kit or LSBio NPTX1 ELISA kits per manufacturer's instructions. 10 μl of each supernatant sample was added to anti-HMGB1 polyclonal antibody-coated plate and incubated for 20 hours at 37° C. All liquid was then removed and the plate manually washed 5 times with wash buffer. 100 μl of enzyme conjugate was then added and incubated for 2 hours at room temperature. After washing again, color solution was added at 100 μl per well and incubated for 30 minutes at room temperature. Following an additional five washes, the plate was incubated with 90 μl of TMB substrate for another 15 minutes at 37° C. in the dark. The reaction was then stopped by addition 100 μl of stop solution. Absorbance was measured at 450 nm using a SpectraMAX Plate Reader. Data was analyzed using SoftMax Pro software.
In-vitro cultures of PF and cells in the iFA model were washed once with PBS and total RNA from the samples were extracted using the RNeasy Mini Kit (Qiagen) according to the manufacturer's instructions. For the lung slice cultures (LSC), tissues were snap-frozen after treatment and stored at −80° C. until RNA isolation. Lung slices were homogenized using a handheld homogenizer and passing the homogenate through a Qiashredder (Qiagen). Total RNA from the LSC and cells from the disease model were extracted using the RNeasy Mini Kit (Qiagen) according to the manufacturer's instructions. The RNA concentrations were measured on a NanoDrop ND-1000 spectrophotometer. Single-stranded cDNA was synthesized from 200 ng of total RNA using Superscript IV and random hexamer primers (Invitrogen) in a volume of 20 μl. cDNA was then used for qRT-PCR analysis. PCR reactions were performed using Taqman Gene Expression Assay mix (Applied Biosystems) according to the manufacturer's instructions.
All human samples were obtained in accordance with institute IRB. Tissue for lung slice experiments was obtained from patients with Idiopathic Pulmonary Fibrosis (IPF) at the time of lung transplant. […]

Assay [2] deals with iFA phenotype of mesenchymal-like cells on 13 kPa hydrogels. Kind of assay: iFA resolution screen (reversal of fibrosis) in the iFA model. As for the experimental part: Signal-to-background (S/B) ratio, standard variation and variation coefficients were calculated as the signal of DMSO treated wells divided by the signal of the hit compound (AA5) treated wells. Z′ values were used to measure assay quality which was calculated by the formula of Z′=1−3(SDTotal+SDBackground)/(MeanTotal−MeanBackground)(Inglese et al., 2006) where SDTotal and MeanTotal are the standard deviation and mean of signal for DMSO treated wells, and SDBackground and MeanBackground are the standard deviation and mean of signal for AA5 treated wells. Data normalization and curve fitting were performed as previously reported (Kariv et al., 1999, J Biomol Screen 4, 27-32.). Z′ values were obtained for the number of cellular aggregates and also calculated a phenotypic cell index as the product of cell number x area/Log(number of iFA aggregates+5). Secondary screening using α-SMA and collagen deposition was employed to further ensure efficacy and resolution of the iFA phenotype of the compounds. For the resolution screen, cells were seeded in a 96-well plate as mentioned above and compounds were added at day 13 to analyze their capacity to resolve the iFA phenotype using the same readouts as above. Dose response experiments were carried out as in the secondary screen but with at least 12 steps of a 1:1 dilution resulting in final compound concentrations from 500 μM to high nanomolar ranges.
The primary assay involved plating together the iPSCs and Table 1 compounds sourced from the library on day 1 on the hydrogel and examining the phenotype on day 7 of the culture as described herein. The secondary screen repeated the assay using compound sourced commercially or from additional library materials. The dose response refers to a 20 point dose course that ranges from picomolar to millimolar concentrations. […] As described herein, the cellular phenotype parameters evaluated included size, fluorescence intensity of the iFA phenotype, the shape factor of the cells/aggregates, and the cells' viability in the presence of viability dyes (Calcein AM).

The structures appear in SMILES notation. Some results are limits rather than exact numbers.

Consider `Cc1c(C(=O)Nc2nc3ccccc3s2)sc2nc3cc4c(cc3cc12)OCO4` [AA5], for which, in the assay on SSEA4+ cells, the “Percentages of SSEA4+ cells” value is “attenuated”. For the same molecule, the “Secretion of matrix degrading proteases MMP-9 and uPA” value in assay [1] (10 μM AA5, 48 hours) is listed as “increased secretion”. The “ACTA-2, COL1A2 and TGF-β3 mRNA expression” value in assay [1] (10 μM AA5, 48 hours, vs DMSO, not TGF-β1/2) is recorded as “significantly reduced”. In assay [1] (10 μM AA5, 48 hours, not TGF-β1/2), the “Secreted TGF-β3, TIMP-4 and POSTN protein” value was “decreased levels”. Further, in assay [1] (AA5-treated LSCs), the “NPTX1 mRNA and protein level” value is reported as “upregulated”; the “Scavenger receptor CD163L1” value is “upregulated and secreted”. Besides, the HMGB1 immunostaining entry in assay [1] (AA5-treated LSCs vs DMSO) was “exclusively nuclear staining”. For the same molecule, in assay [1] (AA5-treated LSCs, 48 hours), the “Secreted HMGB1 (luminex)” value is on record as “markedly decreased”. The “Reduction of fibrosis-initiating SSEA4+ cells” value in assay [1] (AA5-treated LSCs, p value <0.001) is more than 50%. For the same molecule, the “Levels of Collagen I and α-SMA (resolution of iFA phenotype)” value in assay [2] (AA5-resolution) was “reduction”. The Reversal of fibrosis result in assay [2] (phenotype formed over 10 days, then compounds added) is listed as “Yes”.
